Laboratory results taken from patent US8318731B2, “Pyrrolopyrimidines” (Janssen Pharmaceutica NV, priority 2007, dated 2012).

How the values were obtained:
PLK4 (h) = target: T1, PLK4 (h) (Homo sapiens, UniProt O00444); assay: PLK-4 human kinase scintillation proximity assay (SPA); format: biochemical; conditions: 1 μM ATP, 60 minutes at r.t., read-out: PLK4 pIC50 (converted)
T1 sequence (O00444 1-970): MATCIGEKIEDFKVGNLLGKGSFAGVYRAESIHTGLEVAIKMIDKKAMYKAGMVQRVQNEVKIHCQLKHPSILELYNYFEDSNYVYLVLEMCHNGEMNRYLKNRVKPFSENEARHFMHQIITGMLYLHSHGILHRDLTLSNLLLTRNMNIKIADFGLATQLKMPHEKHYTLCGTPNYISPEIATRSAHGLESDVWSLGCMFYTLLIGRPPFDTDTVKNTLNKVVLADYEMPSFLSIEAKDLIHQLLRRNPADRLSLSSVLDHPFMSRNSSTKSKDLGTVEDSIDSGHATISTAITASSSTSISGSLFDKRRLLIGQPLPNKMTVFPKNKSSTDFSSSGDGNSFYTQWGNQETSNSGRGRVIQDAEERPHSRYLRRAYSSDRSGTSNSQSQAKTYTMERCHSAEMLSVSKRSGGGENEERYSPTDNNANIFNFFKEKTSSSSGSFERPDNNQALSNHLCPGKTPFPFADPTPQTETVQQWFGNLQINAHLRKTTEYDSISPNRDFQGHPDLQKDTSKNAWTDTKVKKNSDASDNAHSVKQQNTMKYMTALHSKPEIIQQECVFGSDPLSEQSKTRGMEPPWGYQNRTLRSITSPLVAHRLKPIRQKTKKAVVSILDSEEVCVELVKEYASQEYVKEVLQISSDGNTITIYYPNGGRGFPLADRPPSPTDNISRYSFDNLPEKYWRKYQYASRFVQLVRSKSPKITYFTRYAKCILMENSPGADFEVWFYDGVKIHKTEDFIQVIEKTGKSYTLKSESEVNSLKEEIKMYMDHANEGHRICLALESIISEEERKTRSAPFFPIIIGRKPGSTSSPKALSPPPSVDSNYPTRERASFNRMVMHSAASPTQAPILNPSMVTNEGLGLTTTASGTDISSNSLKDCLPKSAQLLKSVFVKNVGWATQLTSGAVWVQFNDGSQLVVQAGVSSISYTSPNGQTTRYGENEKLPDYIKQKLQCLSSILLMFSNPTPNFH
In short: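 Scintillation proximity read-out: EDTA-stopped reactions were captured on streptavidin SPA beads after PLK4 (19 μg/ml) had phosphorylated 10 μM biotin-peptide for 60 min at room temperature, using 1 μM ATP spiked with 2 nM 33P-ATP in pH 8.0 HEPES buffer.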

HCT-116 = assay: Cellular proliferation assay (Alamar blue), HCT-116; format: cell-based; conditions: Homo sapiens; HCT-116 cells; 10% FCS; 72 h with compound; Alamar blue 4 h; read-out: pIC50 HCT-116 (converted)
In short: (§1)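 Read-out: resazurin-based Alamar blue fluorescence at 544/590 nm, with dye left 24 h on PC3 and A2780, 6 h on U87-MG and 4 h on HCT-116. Beforehand, cells grew 24 h compound-free, then 72 h with compound, in 10% FCS at 37° C./5% CO2. Values are expressed against untreated controls.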

H1299 = assay: Cellular proliferation assay (Alamar blue), H1299; format: cell-based; conditions: Homo sapiens, NCI-H1299, H1299 cells; 10% FCS; 72 h with compound; Alamar blue 4 h; read-out: pIC50 H1299 (converted)
In short: (§2)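 Viable cell number is determined by Alamar blue conversion after cells are treated with compound for 72 hours, following 24 hours of growth without compound in 10% FCS. The effect is calculated against control cells.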

U87-MG = assay: Cellular proliferation assay (Alamar blue), U87-MG; format: cell-based; conditions: Homo sapiens, U-87 MG; U87-MG cells; 10% FCS; 72 h with compound; Alamar blue 6 h; read-out: pIC50 U87MG (converted)
In short: as §1

A2780 = assay: Cellular proliferation assay (Alamar blue), A2780; format: cell-based; conditions: Homo sapiens, A2780, A2780 cells; 10% FCS; 72 h with compound; Alamar blue 24 h; read-out: pIC50 A2780 (converted)
In short: as §1

PC3 = assay: Cellular proliferation assay (Alamar blue), PC3; format: cell-based; conditions: Homo sapiens, PC-3, PC-3 cells; 10% FCS; 72 h with compound; Alamar blue 24 h; read-out: pIC50 PC-3 (converted)
In short: as §1

MDA-MB-231 = assay: Cellular proliferation assay (Alamar blue), MDA-MB-231; format: cell-based; conditions: Homo sapiens, MDA-MB-231, MDA-MB-231 cells; 10% FCS; 72 h with compound; Alamar blue 24 h; read-out: pIC50 MDA/MB231 (converted)
In short: as §2

| SMILES | IC50 (PLK4 (h)) | IC50 (HCT-116) | IC50 (H1299) | IC50 (U87-MG) | IC50 (A2780) | IC50 (PC3) | IC50 (MDA-MB-231) | melting point |
| --- | --- | --- | --- | --- | --- | --- | --- | --- |
| COCCOc1ccc2cc1OCC(=O)N(C)CCCN(C)Cc1c[nH]c3ncnc(c13)N2 [Compound 119] | 0.0251 µM | 0.316 µM | 1 µM | 1.58 µM | 0.316 µM | 2.51 µM | 2 µM | – |
| COc1ccc2cc1OCCCC(=O)N(C)CC1CN(Cc3c[nH]c4ncnc(c34)N2)C1 [Compound 73] | 0.2 µM | > 10 µM | > 10 µM | – | > 10 µM | > 10 µM | > 10 µM | 265.3 °C |
| COc1ccc2cc1OCCCCC(=O)N1CCN(CC1)Cc1c[nH]c3ncnc(c13)N2 [Compound 103] | 0.631 µM | > 10 µM | > 10 µM | > 10 µM | > 10 µM | > 10 µM | > 10 µM | – |
| CC(C)OCCOc1ccc2cc1OCC(=O)N(C)CCCN(C)Cc1c[nH]c3ncnc(c13)N2 [Compound 131] | 0.0501 µM | 0.0631 µM | 0.1 µM | 2 µM | 0.0501 µM | 7.94 µM | 3.16 µM | – |
| COc1cc2cc(c1OC)CCC(=O)N(C)CCN(C)Cc1c[nH]c3ncnc(c13)N2 [Compound 47] | 6.31 µM | > 10 µM | > 10 µM | > 10 µM | > 10 µM | > 10 µM | > 10 µM | – |
| CN1CCCN(C)C(=O)COc2cc(ccc2OCCSc2nccn2C)Nc2ncnc3[nH]cc(c23)C1 [Compound 143] | 0.0631 µM | 1.58 µM | 6.31 µM | 3.16 µM | 1.26 µM | 5.01 µM | 5.01 µM | – |
| CN1CCN(C)C(=O)CCCCOc2cc(ccc2Cl)Nc2ncnc3[nH]cc(c23)C1 [Compound 49] | 3.16 µM | > 10 µM | > 10 µM | > 10 µM | > 10 µM | > 10 µM | > 10 µM | – |
| CN1CCCCN(C)C(=O)COc2cc(ccc2OCC(=O)Nc2ccc(Cl)cc2)Nc2ncnc3[nH]cc(c23)C1 [Compound 133] | 0.0631 µM | 0.0794 µM | 0.2 µM | 2.51 µM | 0.0631 µM | 2.51 µM | 3.16 µM | – |
| CN1CCCN(C)C(=O)CCc2cc(ccc2N2CCOCC2)Nc2ncnc3[nH]cc(c23)C1 [Compound 56] | 5.01 µM | > 10 µM | > 10 µM | > 10 µM | > 10 µM | > 10 µM | > 10 µM | – |
| CN1CCN(C)C(=O)CCc2cccc(c2)Nc2ncnc3[nH]cc(c23)C1 [Compound 20] | 0.631 µM | 7.94 µM | 10 µM | > 10 µM | > 10 µM | > 10 µM | > 10 µM | – |
| CCOCCOc1ccc2cc1OCC(=O)N(C)CCCN(C)Cc1c[nH]c3nc(C)nc(c13)N2 [Compound 147] | – | > 10 µM | > 10 µM | > 10 µM | 2.51 µM | > 10 µM | > 10 µM | 251 °C |
| COc1cc2cc(c1OC)OCC(=O)N(C)CCCN(C)Cc1c[nH]c3ncnc(c13)N2 [Compound 57] | 3.98 µM | > 10 µM | > 10 µM | > 10 µM | > 10 µM | > 10 µM | > 10 µM | – |
